Test [1] concerns the target Cathepsin L (Homo sapiens, UniProt P07711). Description: Cathepsin L enzyme assay. The settings on record: Ki by Morrison equation; pH 5.5, substrate Z-Phe-Arg-Amc; read-out: Cat L. The class given is biochemical. The text has this: Two wells contained DMSO only for controls.
Velocity was converted to μM/sec.

Test [2] has as its target Cat S (Homo sapiens, UniProt P25774). Briefly: Cat S inhibition. It is filed as biochemical.
The target in test [3] is Calpain. Briefly: Calpain enzyme assay. It is filed as biochemical. The conditions noted are these: Ki by Morrison equation; pH 7.5, 5 mM CaCl2.
The subject of test [4] is MERS WT. Briefly: microbe, parasite or virus in culture. It is filed as cell-based. The conditions noted are these: Middle East respiratory syndrome-related coronavirus, read-out: MERS WT (μM).
For test [5], the target named is Cathepsin B (Homo sapiens, UniProt P07858). Briefly: Cathepsin B enzyme assay. The settings on record: Cat B (μM), Ki by Morrison equation; pH 6.0, substrate Z-Phe-Arg-Amc.
Test [6] deals with EBOV WT (Ebola Wild Type). Description: microbe, parasite or virus in culture. It is filed as cell-based. The settings on record: Zaire ebolavirus, read-out: EBOV WT (μM) (Ebola Wild Type).
For test [7], the target named is T1, Cat K (Homo sapiens, UniProt P43235).
T1 sequence (P43235 115-329): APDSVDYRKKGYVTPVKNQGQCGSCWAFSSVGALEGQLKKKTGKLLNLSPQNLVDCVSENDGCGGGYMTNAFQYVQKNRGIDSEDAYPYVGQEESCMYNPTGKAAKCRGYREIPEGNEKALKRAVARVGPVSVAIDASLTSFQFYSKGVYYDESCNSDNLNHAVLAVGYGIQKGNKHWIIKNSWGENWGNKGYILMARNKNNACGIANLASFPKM
Briefly: Cat K inhibition. It is filed as biochemical.

The values that follow come from patent publication US20190085024A1, “Alpha-Ketoamide Inhibitors Of Cysteine Proteases” (Phelix Therapeutics, priority 2017, published 2019).

*1 amine or outer side, *2 acyl side, *3 side chain or, on linkers, in order; H or OH if unused. Where a SMILES comes first, the peptide text is derived from it. [ ]: non-standard residue; d: D form. The star is where a group is joined. 2Nal = N[CH](Cc1ccc2ccccc2c1)C(=O)O; X2 = C=CCOCC(N[*:1])C(=O)C(=O)[*:2]; Ser(allyl) = C=CCOC[CH](N)C(=O)O; PhAc = O=C(Cc1ccccc1)*; Allyl = C=CC*

Sequence of Cathepsin L (P07711 114-333, species assumed): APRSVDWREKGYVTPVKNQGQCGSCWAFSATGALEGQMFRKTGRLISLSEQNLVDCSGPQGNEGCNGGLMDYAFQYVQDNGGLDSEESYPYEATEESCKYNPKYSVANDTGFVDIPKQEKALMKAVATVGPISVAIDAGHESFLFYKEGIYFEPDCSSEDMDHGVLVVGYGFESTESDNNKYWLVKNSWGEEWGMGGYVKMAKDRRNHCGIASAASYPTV
Sequence of Cat S (P25774 115-331): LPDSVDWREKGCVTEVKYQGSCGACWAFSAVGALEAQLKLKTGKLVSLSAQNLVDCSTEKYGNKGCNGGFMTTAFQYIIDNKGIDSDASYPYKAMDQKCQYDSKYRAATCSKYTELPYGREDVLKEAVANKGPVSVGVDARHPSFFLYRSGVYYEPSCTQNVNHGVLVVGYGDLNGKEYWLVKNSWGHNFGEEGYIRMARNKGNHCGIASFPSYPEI

On to `CC(NC(=O)C(Cc1ccccc1)NC(=O)c1ccccc1F)C(=O)C(=O)NC(Cc1ccccc1)C(=O)NC(C)(C)C(N)=O` (centres unmarked) [PHELIX224, N-(1-((4-((1-((1-amino-2-methyl-1-oxopropan-2-yl)amino)-1-oxo-3-phenylpropan-2-yl)amino)-3,4-dioxobutan-2-yl)amino)-1-oxo-3-phenylpropan-2-yl)-2-fluorobenzamide], for which the Ki in test [1] is 45.7 nM; in test [2], 33.2 nM; in test [3], greater than 10000 nM; in test [5], 0.422 µM. The figures for the IC50 in test [4] and in test [6] were greater than 10 µM and 11 µM, respectively.

On to `CC(NC(=O)C(Cc1ccccc1)NC(=O)Cc1ccccc1)C(=O)C(=O)NC(Cc1ccccc1)C(=O)NC(C)(C)C(=O)NCCc1ccccc1` (centres unmarked) [PHELIX230, N-(1-((2-methyl-1-oxo-1-(phenethylamino)propan-2-yl)amino)-1-oxo-3-phenylpropan-2-yl)-2-oxo-3-(3-phenyl-2-(2-phenylacetamido)propanamido)butanamide], for which the Ki in test [1] was 6.78 nM; in test [2] it was 11.5 nM; in test [3], greater than 10000 nM; in test [5], 0.236 µM; in test [7], 310 nM.

In the case of `CC(NC(=O)C(Cc1ccccc1)NC(=O)Cc1ccccc1)C(=O)C(=O)NC(Cc1ccccc1)C(=O)NC(C)(C)C(N)=O` (centres unmarked) [PHELIX249, N-(1-((1-amino-2-methyl-1-oxopropan-2-yl)amino)-1-oxo-3-phenylpropan-2-yl)-2-oxo-3-(3-phenyl-2-(2-phenylacetamido)propanamido)butanamide], the Ki in test [1] is 101 nM; in test [2] it was 6.81 nM; in test [3] it was greater than 10000 nM; in test [5], 0.349 µM; in test [7], 736 nM. The IC50 in test [4] was greater than 30 µM.

For the compound `CC(NC(=O)C(Cc1ccccc1)NC(=O)Cc1ccccc1)C(=O)C(=O)NC(Cc1ccccc1)C(=O)NC(C)(C)C(=O)NCCN1CCOCC1` (centres unmarked) [PHELIX231, N-(1-((2-methyl-1-((2-morpholinoethyl)amino)-1-oxopropan-2-yl)amino)-1-oxo-3-phenylpropan-2-yl)-2-oxo-3-(3-phenyl-2-(2-phenylacetamido)propanamido)butanamide], the Ki in test [1] came to 13.7 nM; in test [2], 200 nM; in test [3], 3790 nM; in test [5], 2.3 µM; in test [7], 4890 nM.

`CCC(C)C(NC(=O)C(Cc1ccccc1)NC(=O)Cc1ccccc1)C(=O)C(=O)NC(Cc1ccccc1)C(=O)NC(C)(C)C(N)=O` (centres unmarked) [PHELIX233, N-(1-((1-amino-2-methyl-1-oxopropan-2-yl)amino)-1-oxo-3-phenylpropan-2-yl)-4-methyl-2-oxo-3-(3-phenyl-2-(2-phenylacetamido)propanamido)hexanamide]: the Ki in test [1] was 8.09 nM; in test [2], 2.55 nM; in test [3] it was greater than 10000 nM; in test [5] it was 0.223 µM; in test [7], 354 nM.

On to `CC(C)CC(NC(=O)OCc1ccccc1)C(=O)NC(C)C(=O)C(=O)NCC(=O)NC(Cc1ccccc1)C(=O)NCCc1ccccc1` (centres unmarked) [PHELIX238, benzyl (5-benzyl-12,17-dimethyl-4,7,10,11,14-pentaoxo-1-phenyl-3,6,9,13-tetraazaoctadecan-15-yl)carbamate], for which the Ki in test [1] came to 3.88 nM; in test [2], 20.3 nM; in test [3], 91.1 nM; in test [5], 0.313 µM; in test [7], 27.7 nM.

In the case of `C=CCOCC(NC(=O)Cc1ccccc1)C(=O)NC(CC(C)C)C(=O)NC(COCC=C)C(=O)C(=O)NCC(=O)NC(Cc1ccc2ccccc2c1)C(N)=O` (centres unmarked) [PHELIX200, 2-(3-(allyloxy)-2-(2-phenylacetamido)propanamido)-N-(1-(allyloxy)-4-((2-((1-amino-3-(naphthalen-2-yl)-1-oxopropan-2-yl)amino)-2-oxoethyl)amino)-3,4-dioxobutan-2-yl)-4-methylpentanamide] (PhAc-[Ser(allyl)]L[X2]G[2Nal]-NH2; configuration not given here), the Ki was determined as 1.51 nM in test [1], 6.57 nM in test [3] and 0.0881 µM in test [5]. Besides, the values for the IC50 in test [4] and in test [6] were greater than 10 µM and 6.4 µM, respectively.

As for `CC(C)CC(NC(=O)OCc1ccccc1)C(=O)NC(C)C(=O)C(=O)NC(Cc1ccncc1)C(N)=O` (centres unmarked) [PHELIX198, benzyl (1-((4-((1-amino-1-oxo-3-(pyridin-4-yl)propan-2-yl)amino)-3,4-dioxobutan-2-yl)amino)-4-methyl-1-oxopentan-2-yl)carbamate], the results for the Ki in test [1], in test [3] and in test [5] were 33.9 nM, 22 nM and 7.3 µM, respectively. Further, the IC50 in test [4] is greater than 10 µM; in test [6], 4.03 µM.

For `CC(NC(=O)C(Cc1ccccc1)NC(=O)Cc1ccccc1)C(=O)C(=O)NC(Cc1cc2ccccc2[nH]1)C(=O)NC(C)(C)C(N)=O` (centres unmarked) [PHELIX232, N-(1-((1-amino-2-methyl-1-oxopropan-2-yl)amino)-3-(1H-indol-2-yl)-1-oxopropan-2-yl)-2-oxo-3-(3-phenyl-2-(2-phenylacetamido)propanamido)butanamide], the Ki in test [1] is 213 nM; in test [2], 147 nM; in test [3] it was greater than 10000 nM; in test [5], 19.9 µM; in test [7], 1840 nM.

On to `CC(NC(=O)C(Cc1cccnc1)NC(=O)Cc1ccccc1)C(=O)C(=O)NC(Cc1ccccc1)C(=O)NC(C)(C)C(N)=O` (centres unmarked) [PHELIX211, N-(1-((1-amino-2-methyl-1-oxopropan-2-yl)amino)-1-oxo-3-phenylpropan-2-yl)-2-oxo-3-(2-(2-phenylacetamido)-3-(pyridin-3-yl)propanamido)butanamide], for which the Ki in test [1] was 218 nM; in test [3], greater than 10000 nM; in test [5], 0.532 µM. In addition, the IC50 in test [4] is greater than 10 µM; in test [6], 209 µM.

With `CC(NC(=O)[C@H](Cc1ccccc1)NC(=O)C(c1ccccc1)c1ccccc1)C(=O)C(=O)N[C@@H](Cc1ccccc1)C(=O)NC(C)(C)C(N)=O` (stereo partly drawn) [PHELIX237, N-((S)-1-((1-amino-2-methyl-1-oxopropan-2-yl)amino)-1-oxo-3-phenylpropan-2-yl)-3-((S)-2-(2,2-diphenylacetamido)-3-phenylpropanamido)-2-oxobutanamide], the Ki in test [1] was 3.36 nM; in test [2] it was 0.8 nM; in test [3], greater than 10000 nM; in test [5], 0.0211 µM; in test [7], 226 nM.

For `CC(NC(=O)[C@H](Cc1ccccn1)NC(=O)Cc1ccccc1)C(=O)C(=O)N[C@@H](Cc1ccccc1)C(=O)N[C@@H](Cc1ccccc1)C(N)=O` (some centres unmarked) [PHELIX219, N-(1-((1-amino-1-oxo-3-phenylpropan-2-yl)amino)-1-oxo-3-phenylpropan-2-yl)-2-oxo-3-(2-(2-phenylacetamido)-3-(pyridin-2-yl)propanamido)butanamide], the Ki was 2910 nM in test [1], greater than 10000 nM in test [3] and 7.52 µM in test [5]. Further, the IC50 in test [4] and in test [6] was greater than 10 µM throughout.

On to `CC(NC(=O)C(Cc1ccccc1)NC(=O)Cc1ccccc1)C(=O)C(=O)NC(CCCNC(=N)N)C(=O)NC(C)(C)C(N)=O` (centres unmarked) [PHELIX234, N-(1-amino-2-methyl-1-oxopropan-2-yl)-5-guanidino-2-(2-oxo-3-(3-phenyl-2-(2-phenylacetamido)propanamido)butanamido)pentanamide], for which the Ki in test [1] is 129 nM; in test [2], 78.1 nM; in test [3], greater than 10000 nM; in test [5] it was greater than 10 µM; in test [7] it was 1080 nM.

On to `CC(C)CC(NC(=O)OCc1ccccc1)C(=O)NC(C)C(=O)C(=O)NCCC(=O)NC(Cc1cccc(C#N)c1)C(N)=O` (centres unmarked) [PHELIX185, benzyl (1-((4-((3-((1-amino-3-(3-cyanophenyl)-1-oxopropan-2-yl)amino)-3-oxopropyl)amino)-3,4-dioxobutan-2-yl)amino)-4-methyl-1-oxopentan-2-yl)carbamate], for which the Ki came out at 102 nM in test [1], 68.4 nM in test [3] and 2.1 µM in test [5]. In addition, the IC50 in test [4] was greater than 10 µM; in test [6], 13.3 µM.

As to `C=CCOCC(NC(=O)C(CC(C)C)NC(=O)C(Cc1ccc(OCC=C)cc1)NC(=O)Cc1ccccc1)C(=O)C(=O)NCC(=O)NC(Cc1ccc2ccccc2c1)C(N)=O` (centres unmarked) [PHELIX202, N-(1-(allyloxy)-4-((2-((1-amino-3-(naphthalen-2-yl)-1-oxopropan-2-yl)amino)-2-oxoethyl)amino)-3,4-dioxobutan-2-yl)-2-(3-(4-(allyloxy)phenyl)-2-(2-phenylacetamido)propanamido)-4-methylpentanamide] (PhAc-Y(Allyl)L[X2]G[2Nal]-NH2; configuration not given here), the Ki in test [1] is 24 nM; in test [3], 25.3 nM; in test [5], 0.692 µM. Further, the IC50 in test [4] and in test [6] was greater than 10 µM throughout.
